According to ChEMBL document CHEMBL1201862, “PubChem BioAssay data set” (2004):
Active and inactive are the calls of the source.

Assays:
[1] = target: Cytochrome P450 2C19 (Homo sapiens, UniProt P33261); test: Cytochrome panel assay with activity outcomes. Panel member name: p450-cyp2c19 Compounds with AC50 equal or less than 10 uM are considered active; format: functional; details: read-out: AC50
[2] = target: Cytochrome P450 3A4 (Homo sapiens, UniProt P08684);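 note: CYP3A4 tested as one member of a cytochrome P450 panel screen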
Chain of Cytochrome P450 3A4 (P08684 whole entry): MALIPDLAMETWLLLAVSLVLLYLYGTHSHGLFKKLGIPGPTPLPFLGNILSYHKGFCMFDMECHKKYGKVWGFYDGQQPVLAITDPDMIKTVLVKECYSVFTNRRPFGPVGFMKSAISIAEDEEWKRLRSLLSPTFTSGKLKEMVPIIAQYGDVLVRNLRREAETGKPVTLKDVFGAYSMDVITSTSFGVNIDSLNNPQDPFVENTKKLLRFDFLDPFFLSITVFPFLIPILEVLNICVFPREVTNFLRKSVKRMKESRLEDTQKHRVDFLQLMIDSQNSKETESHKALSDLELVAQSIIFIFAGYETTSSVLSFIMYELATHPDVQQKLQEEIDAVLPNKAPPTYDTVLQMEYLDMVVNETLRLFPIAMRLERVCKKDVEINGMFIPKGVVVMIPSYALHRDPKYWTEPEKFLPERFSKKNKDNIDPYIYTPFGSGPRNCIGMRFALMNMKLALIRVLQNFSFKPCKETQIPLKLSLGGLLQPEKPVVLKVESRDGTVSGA

[3] = target: T1, Heat shock factor protein 1 (Mus musculus, UniProt P38532); test: HSF1 potentiators in luciferase reporter cells, confirmation, cell-based, NIH3T3, luminescence, dose retest (AID 435004); format: functional;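 note: stress induced by proteasome inhibitor MG132 added 30 min after compound; luciferase reporter driven by HSF1 response element in NIH3T3 cells; actives raise luminescence as potentiators of the MG132 stress response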
T1 sequence (P38532 whole entry): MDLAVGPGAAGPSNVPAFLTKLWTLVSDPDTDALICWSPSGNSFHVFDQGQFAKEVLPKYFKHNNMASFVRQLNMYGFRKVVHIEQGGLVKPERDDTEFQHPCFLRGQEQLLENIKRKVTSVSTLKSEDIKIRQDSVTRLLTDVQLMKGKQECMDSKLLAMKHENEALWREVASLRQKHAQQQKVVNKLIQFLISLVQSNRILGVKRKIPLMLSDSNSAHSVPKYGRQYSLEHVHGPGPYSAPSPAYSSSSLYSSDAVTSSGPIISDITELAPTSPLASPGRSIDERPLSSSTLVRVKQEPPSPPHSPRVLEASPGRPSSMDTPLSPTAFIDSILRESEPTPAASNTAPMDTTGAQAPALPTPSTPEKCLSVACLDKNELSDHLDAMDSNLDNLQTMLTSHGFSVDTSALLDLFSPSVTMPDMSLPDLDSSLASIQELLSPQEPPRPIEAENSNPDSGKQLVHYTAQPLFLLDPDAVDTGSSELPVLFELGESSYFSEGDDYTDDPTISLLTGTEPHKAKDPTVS

[4] = target: T2, Replicative DNA helicase DnaB (Mycobacterium tuberculosis, UniProt P9WMR3); test: DnaB intein splicing inhibitors, dose response, biochemical, cell-free fluorescence (AID 449749); format: functional
T2 sequence (P9WMR3 whole entry): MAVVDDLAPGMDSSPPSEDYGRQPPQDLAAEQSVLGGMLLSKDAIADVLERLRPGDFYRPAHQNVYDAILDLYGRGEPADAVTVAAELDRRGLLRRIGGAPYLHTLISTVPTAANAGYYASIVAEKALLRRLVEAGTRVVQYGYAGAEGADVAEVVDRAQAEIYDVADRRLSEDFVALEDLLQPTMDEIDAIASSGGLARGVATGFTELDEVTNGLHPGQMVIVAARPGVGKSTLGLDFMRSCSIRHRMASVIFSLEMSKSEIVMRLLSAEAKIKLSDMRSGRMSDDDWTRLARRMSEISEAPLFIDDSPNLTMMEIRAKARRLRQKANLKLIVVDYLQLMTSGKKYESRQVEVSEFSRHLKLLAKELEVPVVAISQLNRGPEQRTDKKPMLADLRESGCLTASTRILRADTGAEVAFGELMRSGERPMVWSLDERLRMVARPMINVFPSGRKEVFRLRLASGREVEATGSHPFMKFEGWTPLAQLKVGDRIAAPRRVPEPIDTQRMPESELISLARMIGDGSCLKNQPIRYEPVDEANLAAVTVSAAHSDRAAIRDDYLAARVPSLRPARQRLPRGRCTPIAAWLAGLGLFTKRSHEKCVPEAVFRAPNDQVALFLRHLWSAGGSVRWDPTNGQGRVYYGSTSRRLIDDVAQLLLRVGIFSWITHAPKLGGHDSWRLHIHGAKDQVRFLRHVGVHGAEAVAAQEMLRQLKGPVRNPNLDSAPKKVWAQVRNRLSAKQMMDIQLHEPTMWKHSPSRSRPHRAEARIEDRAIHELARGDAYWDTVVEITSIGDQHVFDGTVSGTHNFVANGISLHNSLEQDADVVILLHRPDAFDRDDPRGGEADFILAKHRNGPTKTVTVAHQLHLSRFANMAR

[5] = target: T3, Protein RecA (Mycobacterium tuberculosis, UniProt P9WHJ3); test: Fluorescence Cell-Free Homogeneous Dose Retest to Identify Inhibitors of RecA-Intein Splicing Activity. [Related pubchem assays (depositor defined):AID2097, AID2223, AID489010, AID492950]; format: functional
T3 sequence (P9WHJ3 whole entry): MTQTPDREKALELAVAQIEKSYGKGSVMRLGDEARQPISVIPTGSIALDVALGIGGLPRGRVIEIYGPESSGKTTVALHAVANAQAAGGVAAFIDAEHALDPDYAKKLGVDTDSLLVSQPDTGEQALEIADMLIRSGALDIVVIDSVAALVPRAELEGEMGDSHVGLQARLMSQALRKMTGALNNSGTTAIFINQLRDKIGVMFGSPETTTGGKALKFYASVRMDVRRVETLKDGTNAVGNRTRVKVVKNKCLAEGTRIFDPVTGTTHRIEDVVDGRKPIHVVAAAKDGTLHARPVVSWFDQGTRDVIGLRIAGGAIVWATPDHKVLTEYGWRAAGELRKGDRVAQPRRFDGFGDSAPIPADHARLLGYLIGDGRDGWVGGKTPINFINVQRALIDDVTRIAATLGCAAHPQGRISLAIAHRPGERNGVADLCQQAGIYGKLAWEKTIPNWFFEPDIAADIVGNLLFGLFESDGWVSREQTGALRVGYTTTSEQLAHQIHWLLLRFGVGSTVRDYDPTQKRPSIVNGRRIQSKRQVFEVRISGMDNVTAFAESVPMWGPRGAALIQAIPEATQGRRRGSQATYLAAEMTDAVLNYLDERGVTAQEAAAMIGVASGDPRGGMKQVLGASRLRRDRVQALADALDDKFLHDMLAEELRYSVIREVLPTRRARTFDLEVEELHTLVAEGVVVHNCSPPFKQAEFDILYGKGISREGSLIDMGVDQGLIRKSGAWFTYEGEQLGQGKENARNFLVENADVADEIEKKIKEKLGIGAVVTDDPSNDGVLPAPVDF

[6] = HEp-2 cell cytotoxicity, dose response, cytotoxicity control for RSV inhibitor project, HTS (AID 2410); format: functional; details: human respiratory syncytial virus
[7] = system: Streptococcus sp. 'group A'; test: growth inhibition of control SK(-) GAS strain, dose response, counter-screen for streptokinase expression inhibitor project, luminescence, kanamycin, BacTiterGlo, confirmation (AID 1900); format: functional, organism-based
[8] = target: T4, Streptokinase A (Streptococcus pyogenes serotype M1, UniProt P10520); test: S. pyogenes streptokinase expression inhibitors, potency, dose response, plasminogen activation absorbance, OD405 (AID 1914); format: functional, Streptococcus pyogenes M1 GAS;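 note: secreted streptokinase activity via plasminogen activation per viability signal from cell pellet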
T4 sequence (P10520 whole entry): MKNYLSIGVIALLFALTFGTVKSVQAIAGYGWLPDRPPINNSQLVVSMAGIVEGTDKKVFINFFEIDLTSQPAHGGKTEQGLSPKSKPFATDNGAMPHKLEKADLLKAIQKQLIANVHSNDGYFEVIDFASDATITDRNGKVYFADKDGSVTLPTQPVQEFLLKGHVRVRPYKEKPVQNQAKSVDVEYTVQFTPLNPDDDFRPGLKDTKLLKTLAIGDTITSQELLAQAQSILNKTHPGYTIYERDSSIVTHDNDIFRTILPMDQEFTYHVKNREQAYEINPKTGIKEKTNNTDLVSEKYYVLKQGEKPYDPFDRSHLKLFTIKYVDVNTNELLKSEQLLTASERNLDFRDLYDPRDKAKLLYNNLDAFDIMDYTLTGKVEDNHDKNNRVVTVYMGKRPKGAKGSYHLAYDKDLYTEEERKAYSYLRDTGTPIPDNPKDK

[9] = system: Streptococcus; test: Group A Streptococcus viability loss, dose response, counter-screen for streptokinase expression inhibitor project, luminescence, BacTiterGlo (AID 1915); format: functional, organism-based;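 note: potency for reduction of bacterial viability or growth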
[10] = target: Cytochrome P450 2D6 (Homo sapiens, UniProt P10635);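 note: CYP2D6 member of a cytochrome P450 panel assay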
Chain of Cytochrome P450 2D6 (P10635 whole entry): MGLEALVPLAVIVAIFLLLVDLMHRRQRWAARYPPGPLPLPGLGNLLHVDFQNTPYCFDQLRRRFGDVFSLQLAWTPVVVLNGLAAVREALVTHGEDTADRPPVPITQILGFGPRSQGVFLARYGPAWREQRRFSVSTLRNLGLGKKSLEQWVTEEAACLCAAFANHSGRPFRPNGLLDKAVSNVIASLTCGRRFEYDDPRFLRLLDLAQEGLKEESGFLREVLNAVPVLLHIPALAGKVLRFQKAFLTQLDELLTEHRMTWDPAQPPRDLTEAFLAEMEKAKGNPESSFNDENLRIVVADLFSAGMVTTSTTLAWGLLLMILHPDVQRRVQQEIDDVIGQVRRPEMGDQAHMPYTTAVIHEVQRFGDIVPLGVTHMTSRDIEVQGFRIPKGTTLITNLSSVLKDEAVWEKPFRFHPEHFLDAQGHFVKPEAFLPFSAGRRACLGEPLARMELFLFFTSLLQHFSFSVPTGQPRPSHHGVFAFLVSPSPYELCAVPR

[11] = target: Cytochrome P450 2C9 (Homo sapiens, UniProt P11712)
Chain of Cytochrome P450 2C9 (P11712 whole entry): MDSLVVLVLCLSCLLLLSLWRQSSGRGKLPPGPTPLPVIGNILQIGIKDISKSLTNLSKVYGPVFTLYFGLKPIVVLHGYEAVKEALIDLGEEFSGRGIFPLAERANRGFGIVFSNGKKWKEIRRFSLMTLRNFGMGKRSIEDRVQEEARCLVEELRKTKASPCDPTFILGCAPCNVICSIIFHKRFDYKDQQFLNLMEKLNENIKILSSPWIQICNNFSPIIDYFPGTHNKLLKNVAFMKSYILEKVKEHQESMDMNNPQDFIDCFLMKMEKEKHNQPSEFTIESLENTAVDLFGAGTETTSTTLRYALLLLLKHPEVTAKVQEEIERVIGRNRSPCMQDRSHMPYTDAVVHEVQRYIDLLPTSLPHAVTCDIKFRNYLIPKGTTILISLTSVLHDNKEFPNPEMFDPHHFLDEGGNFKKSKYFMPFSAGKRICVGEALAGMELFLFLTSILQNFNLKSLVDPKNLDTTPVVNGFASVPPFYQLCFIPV

Chain of Cytochrome P450 2C19 (P33261 whole entry): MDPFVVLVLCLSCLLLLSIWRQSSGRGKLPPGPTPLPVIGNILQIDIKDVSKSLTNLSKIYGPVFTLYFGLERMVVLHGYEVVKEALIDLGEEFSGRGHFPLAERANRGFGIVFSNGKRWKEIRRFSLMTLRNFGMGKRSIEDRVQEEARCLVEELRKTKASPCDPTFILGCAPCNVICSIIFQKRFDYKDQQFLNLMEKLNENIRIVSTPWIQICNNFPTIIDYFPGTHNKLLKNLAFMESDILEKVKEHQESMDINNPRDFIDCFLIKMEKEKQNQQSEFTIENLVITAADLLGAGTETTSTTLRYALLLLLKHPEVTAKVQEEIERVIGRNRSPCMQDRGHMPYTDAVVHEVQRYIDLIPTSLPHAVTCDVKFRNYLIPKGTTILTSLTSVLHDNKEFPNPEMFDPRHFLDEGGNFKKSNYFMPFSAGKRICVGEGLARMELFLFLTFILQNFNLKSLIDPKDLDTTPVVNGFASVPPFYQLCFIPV

CN(C)CC(C)(C)CN1c2ccccc2Sc2ccccc21
AC50 [1]: 2 µM (inconclusive) | AC50 [2]: 5.01 µM (inconclusive)

CCc1ccccc1NC(=O)COc1ccc2c(=O)c(Oc3cc(C)ccc3C)coc2c1
EC50 [3]: > 260 µM (inactive)

CCOc1ccc(Cl)cc1C(c1c(C)n[nH]c1O)c1c(C)n[nH]c1O
AC50 [4]: 0.551 µM (active) | EC50 [5]: 0.221 µM (active)

COc1ccccc1N1CCN(C(=O)c2ccc3c(=O)n(Cc4ccco4)c(=S)[nH]c3c2)CC1
EC50 [3]: > 260 µM (inactive)

N#C/C(=C(/O)CN1CCN(c2ccccc2F)CC1)c1nc(-c2ccccc2)cs1
CC50 [6]: 5 µM (active) | EC50 [7]: 11.7 µM (active) | EC50 [8]: > 150 µM (not active) | EC50 [9]: 86.1 µM (active)

CC1=C(Nc2c(C)cc(O)cc2O)C(=O)C=c2oc3c(c21)C(C)=C(Nc1c(C)cc(O)cc1O)C(=O)C=3
AC50 [10]: 2.51 µM (inconclusive)

O=C(N/N=C/c1c[nH]c2ccc(Br)cc12)c1ccn(Cc2ccc(Cl)cc2)n1
AC50 [2]: 3.98 µM (inconclusive) | AC50 [11]: 39.8 µM (inconclusive)

COc1ccc(C)cc1NC(=O)C/C(C)=N/NC(=O)Cc1cccc2ccccc12
EC50 [3]: > 260 µM (inactive)

Cc1ccc(S(=O)(=O)n2cnc3ccccc32)cc1[N+](=O)[O-]
EC50 [3]: > 260 µM (inactive)

CSc1nc(Sc2cccc(Cl)c2)c2ccccc2n1
AC50 [2]: 35.5 µM (inconclusive)

CCc1ccccc1N=C(S)NC1CC2CCC(C1)N2Cc1ccco1 (stereo unspecified)
AC50 [10]: 14.1 µM (inconclusive) | AC50 [2]: 20 µM (inconclusive)

O=C(c1ccc(Cl)c(Cl)c1)c1cc(-c2ccccn2)c(N2CCOCC2)s1
AC50 [10]: 10 µM (inconclusive)

O=C(O)c1c(Br)c(Br)c(Br)c(Br)c1C1c2ccc(O)cc2Oc2cc(O)ccc21
AC50 [2]: 3.98 µM (inconclusive) | AC50 [11]: 7.94 µM (inconclusive)

COCCCNCCOc1ccc(C)cc1[N+](=O)[O-]
EC50 [3]: > 260 µM (inactive)

CC1=C(C)/C(=N\OC(=O)/C=C/c2ccccc2)C=CC1=O
AC50 [4]: > 380 µM (inactive) | EC50 [5]: 0.532 µM (active)

CN(C)Cc1cc(C(F)(F)F)ccc1C(O)(c1ccccc1)c1ccccc1
AC50 [10]: 3.16 µM (inconclusive)

CC(=O)c1ccc(NC(=O)CCCN2C(=O)/C(=C/C(C)=C/c3ccccc3)SC2=S)cc1
EC50 [3]: 106 µM (active)

COC(=O)c1ccc(C(NC(=O)c2ccccc2)[C@]2(C)C[C@H]2C2CCCCC2)cc1 (stereo partly specified)
AC50 [2]: 6.31 µM (inconclusive)

CCNc1ncc2ncc(=O)n(Cc3cccs3)c2n1
AC50 [1]: 20 µM (inconclusive) | AC50 [2]: 20 µM (inconclusive) | AC50 [11]: 15.8 µM (inconclusive)

Clc1ccc(-c2nc(/C=N/N3CCOCC3)c3ccccn23)cc1
EC50 [3]: > 260 µM (inactive)

CC(C)Cn1c(C(C)C)nc([N+](=O)[O-])c1S(=O)(=O)c1ccc(F)cc1
AC50 [4]: 13.9 µM (active) | EC50 [5]: 9.69 µM (active)

Cn1c(-c2sc(=S)n(-c3ccccc3)c2N)nc2ccccc21
AC50 [10]: 1.26 µM (inconclusive)

CCC/C=C(\CCC)C(NC(=O)c1ccc(C(F)(F)F)cc1)c1ccc(C(F)(F)F)cc1 (stereo unspecified)
AC50 [2]: 10 µM (inconclusive)

O=C(/C=C/c1ccccc1)c1ccc2c3c(cccc13)CC2
AC50 [4]: > 380 µM (inactive) | EC50 [5]: 11.4 µM (active)

CCOC(=O)C1=C(CN2CCc3ccccc32)NC(=O)NC1c1ccc(Cl)cc1 (stereo unspecified)
EC50 [3]: > 260 µM (inactive)

COc1cccc(-c2ccc3ncnc(N4CCN(C)CC4)c3c2)c1
AC50 [1]: 31.6 µM (inconclusive) | AC50 [10]: 39.8 µM (inconclusive)

N#Cc1cccc(-c2cncnc2-n2ccnc2)c1
AC50 [1]: 39.8 µM (inconclusive) | AC50 [10]: 39.8 µM (inconclusive)

CC1=NN(c2ccccc2)C(=O)/C1=C/c1cn(C)c2ccccc12
AC50 [4]: 57.1 µM (active) | EC50 [5]: 39 µM (active)

CC1(C)CC(=O)C/C(=N/NC(=O)CCCOc2ccc(Cl)cc2Cl)C1
EC50 [3]: > 260 µM (inactive)

COc1cc2c(cc1NC(=O)COC(=O)[C@@H](NS(=O)(=O)c1ccccc1)C(C)C)oc1ccccc12
EC50 [3]: > 260 µM (inactive)

CN1CCN(c2ccnc(-c3ccoc3)n2)CC1
AC50 [10]: 39.8 µM (inconclusive)

CC(=O)O[C@]12CC[N@+]3(C)CCCC[C@@H]3[C-]1Nc1ccccc12
AC50 [10]: 3.16 µM (inconclusive)

Cc1ccc(-c2nc3ncccn3c2Nc2ccccc2C)o1
EC50 [3]: > 260 µM (inactive)

Cc1cccc(CN(C(S)=Nc2c(C)cccc2C)c2cccnc2)c1
EC50 [3]: > 260 µM (inactive)

Cc1ccc(S(=O)(=O)N[C@@H](CCc2ccccc2)CC(=O)C(C)(C)C)cc1
AC50 [10]: 3.16 µM (inconclusive)

CCOc1ccc(/C=N/NC(=S)NC2CC3CC2C2C=CCC32)cc1 (stereo unspecified)
EC50 [7]: 14.4 µM (active) | EC50 [8]: > 150 µM (not active) | EC50 [9]: 19.8 µM (active)

COc1ccc(C2CC3=Nc4ncnn4C(c4ccccc4)C3=C(O)C2)cc1 (stereo unspecified)
EC50 [3]: > 260 µM (inactive)

Cn1cccc1C(=O)N1CCC2(CCCN(Cc3ccccc3)C2)CC1
AC50 [2]: 31.6 µM (inconclusive)
